One data set relates to Hep3B cells. The experiment in a line: Cytotoxicity, MTT assay. It is filed as cell-based. As to conditions: 200 µM, 24 h. The method, then:
Figure S19. NOESY spectrum of 2-(2-hydroxyphenyl)oxetan-3-ol (7).
Figure S20. Cytotoxicity of CO hydrosol and its compounds on Hep3B. […]
trans-PO: trans-phenyloxetan-3-ol; cis-PO: cis-phenyloxetan-3-ol; trans-CA: trans- […]
The Hep3B cells were maintained in Dulbecco’s Modified Eagle medium (DMEM; HyClone,Washington, DC, US), supplemented with 10% fetal bovine sera(FBS; Gibco,Waltham, MA, US), 1 mM sodium pyruvate (Corning), and 1% […]
penicillin/streptomycin (Corning) at 37 ℃ in a humidified atmosphere of 5% CO2. Cell viability was measured using a colorimetric MTT assay. Cells were seeded in 96-well plates at a density of 1 × 1 0 4 cells/well. Stock solutions of samples in dimethyl sulfoxide (DMSO; Sigma-Aldrich) were stored in the dark at 4 ℃. Appropriate dilutions were prepared on the day of the experiments. […]
exceed 0.25% (v/v). After 24 h incubated with samples, the culture medium was removed and replaced with fresh medium containing 0.5 mg/mL of MTT (Sigma-Aldrich) for 1 h. The supernatant was removed and added 100 µL DMSO to dissolve formazan. Absorption at 570 nm for each well was measured using an ELISA microplate reader (BioTeck Instruments, Winooski, VT, USA).
In general terms: Tetrazolium assays rely on reduction of a dye to a coloured formazan, in cell work by metabolically active cells.

Data set [1] has as its target T1, PDE5 (Homo sapiens, UniProt O76074).
T1 construct: purchased BPS Bioscience
As to the kind of experiment: PDE5 inhibition assay (PDE5A1 assay kit). The data set is classed as biochemical. The method, then:
The PDE5 assay was determined by using a PDE5A1 assay kit (BPS Bioscience, San Diego, CA, USA). The experiments were conducted following the manufacturer’s protocol. Sildenafil (10 nM) was used as a positive control.

For data set [2], the system named is PDE5. On the set-up: method as in PMID 18778098. To be noted: cited from earlier work.

For orientation: IC50 means the concentration at which inhibition is half-maximal. In general, inhibition refers to the share of the control response that was lost under treatment.

In the case of `O[C@H]1CO[C@H]1c1ccccc1` (relative stereo) [cis-phenyloxetan-3-ol], in the data set with Hep3B cells, the cytotoxicity result is on record as “no cytotoxicity”. On PDE5 [1], this molecule registered a half-maximal inhibitory concentration (IC50) of 3.4 µM. Moreover, on PDE5 [1] (read-out: PDE5 inhibition rate), the inhibition at 0.1 µM amounted to 10.8%, the inhibition at 0.5 µM was 27.1%, the inhibition at 1 µM was found to be 38.1% and the inhibition at 10 µM is 61.9%. In addition, the inhibition at 5 µM at PDE5 [1] (5 µM, read-out: PDE5 inhibition rate) was 52.1%.

On to `O[C@@H]1CO[C@H]1c1ccccc1` (relative stereo) [trans-phenyloxetan-3-ol], for which the cytotoxicity entry in the data set with Hep3B cells is listed as “no cytotoxicity”. On PDE5 [1], this molecule came in with an IC50 of 4.37 µM. At PDE5 [1] (read-out: PDE5 inhibition rate), the inhibition at 0.1 µM was found to be 11.5%, the inhibition at 0.5 µM turned out to be 26.1%, the inhibition at 1 µM was 36.7% and the inhibition at 10 µM was 58.4%. Further, the inhibition at 20 µM on PDE5 [1] (20 µM, read-out: PDE5 inhibition rate) is 65.3%.

As to `COc1ccc(-c2oc3c(CC=C(C)C)c(O[C@@H]4O[C@H](CO)[C@@H](O)[C@H](O)[C@H]4O)cc(O)c3c(=O)c2O[C@@H]2O[C@@H](C)[C@H](O)[C@@H](O)[C@H]2O)cc1` [icariin], the IC50 with PDE5 [2] was approximately 5.9 µM.

Turning to `O=C/C=C/c1ccccc1` [trans-cinnamaldehyde], the PDE5 inhibition rate result in the data set with PDE5 [2] (10 µM) was “less than 20%”.
